Measurements as given in patent US9181259B2 (LEO PHARMA A/S, priority 2012, dated 2015).
Structures can show the parent of a compound that is named as a salt.

Columns and labels:
NK1 receptor = target: T1, NK1 receptor (Homo sapiens, UniProt P25103); assay: NK1 receptor mediated intracellular [Ca2+] mobilization in U251 MG cells using FLIPR; type: cell-based; settings: antagonist potency against Substance P (EC80), normalized to 100 nM Aprepitant, read-out: U251MG (FLIPR pIC50) (converted)
T1 construct: Measurement of NK1 Receptor Mediated Intracellular [Ca^2+]; Mobilization in U251 MG Cells Using FLIPR; endogenous in cells; host or cells: U251 MG cells
T1 sequence (P25103 whole entry): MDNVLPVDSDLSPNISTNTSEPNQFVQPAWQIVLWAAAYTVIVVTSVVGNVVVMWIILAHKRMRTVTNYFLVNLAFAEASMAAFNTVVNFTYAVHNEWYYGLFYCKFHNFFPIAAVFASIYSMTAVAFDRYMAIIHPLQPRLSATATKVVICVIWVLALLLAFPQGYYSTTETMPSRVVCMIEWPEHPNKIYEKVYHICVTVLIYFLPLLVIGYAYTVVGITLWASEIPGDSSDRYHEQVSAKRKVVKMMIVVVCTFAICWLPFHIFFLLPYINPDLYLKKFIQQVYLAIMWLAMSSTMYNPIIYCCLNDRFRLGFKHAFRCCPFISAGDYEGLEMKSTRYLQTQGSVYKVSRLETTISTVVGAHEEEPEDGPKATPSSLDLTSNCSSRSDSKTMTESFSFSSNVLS
In short: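 Fluo-4-loaded U251 MG cells were preincubated with compound (0.5% DMSO final), with any agonist effect read for 5 min, then 10 min more at 37 °C before Substance P at EC80. Peak FLIPR fluorescence change was read, and IC50 came from a four-parameter fit as the midpoint between fitted top and bottom.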

[1] = Hepatic intrinsic clearance following incubation in human liver microsomes; type: in vitro ADME; settings: NADPH regenerating system, 0-30 min, 37 °C
Method: Hepatic Extraction Ratio from Hepatic Intrinsic Clearance Following Incubation in Human Liver Microsomes
The general procedure consists of an automated incubation system and LC-MS/MS analysis with human liver microsomes. Human liver microsomes are thawed rapidly in a waterbath at 37° C. and kept on ice until use. The human liver microsomes are diluted with 50 mM potassium phosphate buffer pH 7.4 to a protein concentration of 0.55 mg/mL. Test compounds and positive controls (Verapamil and Dextromethorphan, positive controls for CYP3A4 for CYP2D6 isoforms, respectively) are dissolved in methanol (or other appropriate solvent, if necessary) in order to obtain a 5 mM solution which is further diluted to the concentration of 50 μM. The stock solutions are prepared immediately before the test.
5 μL of 50 μM test compounds and controls are added to 445 μL-of the 0.55 mg/mL microsomes solution and the incubation mixture are pre-warmed at 37° C. for 5 minutes.
The incubation reactions are initiated by adding 50 μL of pre-warmed NADPH regenerating system to the incubation mixtures. 50 μL-aliquots will be taken from the incubation mixtures at: 0, 3, 6, 9, 15 and 30 minutes and the reactions are stopped by adding 100 μL of ACN containing Rolipram, used as generic Internal Standard (1S). Samples are then diluted with 120 μL of Milli-Q water and centrifuged at 3000 rpm for 10 minutes, prior the LC-MS/MS analysis.
The integrated peak areas for test compounds at the selected time points are divided by the respective peak areas of the IS and the percent of parent remaining is calculated by normalizing the peak area ratio of parent to IS at 0 min. Observed rate constant (kobs) for parent degradation is calculated by determining the slope of the line of the graph of the natural log of percentage parent remaining versus time of incubation. From the rate of depletion (min-1) and volume of the incubation (mL), clearance is estimated. This is scaled for the protein in the incubation relative to that in the intact liver, for all species (mL/min/g liver).
Values for the Human in vitro Clint are expressed as mL/min/g liver.
Assuming a liver weight of 25.7 g/kg and a liver blood flow of 20.7 mL/min/kg, the hepatic extraction ratio, Eh, can be derived from the Human in vitro Clint:
E.g. a Human in vitro Clint of 2.4 mL/min/g liver corresponds to a hepatic extraction ratio of 75%.
Some compounds of the present invention were tested according to example 121.

Row | IC50 (NK1 receptor) | Human in vitro Clint (mL/min/g liver) [1] | SMILES
1 | 0.513 nM | 3.1 mL/min/g liver | Cc1ccccc1C1C2CC(CO)CN2CCN1C(=O)N(C)Cc1cc(C(F)(F)F)cc(C(F)(F)F)c1 (single isomer, unassigned) [Compound 52, N-{[3,5-bis(trifluoromethyl)phenyl]methyl}-7-(hydroxymethyl)-N-methyl-1-(2-methylphenyl)-octahydropyrrolo[1,2-a]piperazine-2-carboxamide; methanesulfonic acid salt]
2 | 0.112 nM | 0.34 mL/min/g liver | Cc1ccccc1C1C2CC(CO)C(=O)N2CCN1C(=O)N(C)[C@H](C)c1cc(C(F)(F)F)cc(C(F)(F)F)c1 (single isomer, unassigned) [Compound 56]
3 | 0.324 nM | 11 mL/min/g liver | Cc1ccccc1C1C2CCCN2CCN1C(=O)N(C)[C@H](C)c1cc(C(F)(F)F)cc(C(F)(F)F)c1 (single isomer, unassigned) [Compound 63]
4 | 0.0794 nM | 4.2 mL/min/g liver | Cc1ccccc1C1C2CC(CCO)(CCO)CN2CCN1C(=O)N(C)Cc1cc(C(F)(F)F)cc(C(F)(F)F)c1 (single isomer, unassigned) [Compound 66, N-{[3,5-bis(trifluoromethyl)phenyl]methyl}-7,7-bis(2-hydroxyethyl)-N-methyl-1-(2-methylphenyl)-octahydropyrrolo[1,2-a]piperazine-2-carboxamide]
5 | 0.0316 nM | 32 mL/min/g liver | Cc1ccccc1[C@H]1[C@H]2CCC(=O)N2CCN1C(=O)N(C)[C@H](C)c1cc(C(F)(F)F)cc(C(F)(F)F)c1 (single isomer, unassigned) [Compound 75]
6 | 0.148 nM | 12 mL/min/g liver | Cc1ccccc1[C@H]1[C@@H]2CC(CCO)(CCO)C(=O)N2CCN1C(=O)N(C)Cc1cc(F)cc(C(F)(F)F)c1 [Compound 76, (1S,8aS)-N-(3-fluoro-5-(trifluoromethyl)benzyl)-7,7-bis(2-hydroxyethyl)-N-methyl-6-oxo-1-o-tolylhexahydropyrrolo[1,2-a]pyrazine-2(1H)-carboxamide]
7 | 0.0631 nM | 15 mL/min/g liver | Cc1cc(CN(C)C(=O)N2CCN3C(=O)C(CCO)(CCO)C[C@H]3[C@@H]2c2ccccc2C)cc(C(F)(F)F)c1 [Compound 77, (1S,8aS)-7,7-bis(2-hydroxyethyl)-N-methyl-N-(3-methyl-5-(trifluoromethyl)benzyl)-6-oxo-1-o-tolylhexahydropyrrolo[1,2-a]pyrazine-2(1H)-carboxamide]
8 | 0.112 nM | 4.6 mL/min/g liver | COc1cc(CN(C)C(=O)N2CCN3C(=O)C(CCO)(CCO)C[C@H]3[C@@H]2c2ccccc2C)cc(C(F)(F)F)c1 [Compound 78, (1S,8aS)-7,7-bis(2-hydroxyethyl)-N-(3-methoxy-5-(trifluoromethyl)benzyl)-N-methyl-6-oxo-1-o-tolylhexahydropyrrolo[1,2-a]pyrazine-2(1H)-carboxamide]
9 | 0.105 nM | 14 mL/min/g liver | Cc1ccccc1[C@H]1[C@@H]2CC(CCO)(CCO)C(=O)N2CCN1C(=O)N(C)Cc1cc(Cl)cc(C(F)(F)F)c1 [Compound 79, (1S,8aS)-N-(3-chloro-5-(trifluoromethyl)benzyl)-7,7-bis(2-hydroxyethyl)-N-methyl-6-oxo-1-o-tolylhexahydropyrrolo[1,2-a]pyrazine-2(1H)-carboxamide]
10 | 0.132 nM | 7.8 mL/min/g liver | CCC(c1cc(C(F)(F)F)cc(C(F)(F)F)c1)N(C)C(=O)N1CCN2C(=O)C(CCO)(CCO)C[C@H]2[C@@H]1c1ccccc1C (stereo partly drawn) [Compound 83, (1S,8aS)-N-(1-(3,5-bis(trifluoromethyl)phenyl)propyl)-7,7-bis(2-hydroxyethyl)-N-methyl-6-oxo-1-o-tolylhexahydropyrrolo[1,2-a]pyrazine-2(1H)-carboxamide]
11 | 0.0631 nM | 8.5 mL/min/g liver | Cc1cc([C@H](C)N(C)C(=O)N2CCN3C(=O)C(CCO)(CCO)C[C@H]3[C@@H]2c2ccccc2C)cc(C(F)(F)F)c1 [Compound 84, (1S,8aS)-7,7-bis(2-hydroxyethyl)-N-methyl-N-((S)-1-(3-methyl-5-(trifluoromethyl)phenyl)ethyl)-6-oxo-1-o-tolylhexahydropyrrolo[1,2-a]pyrazine-2(1H)-carboxamide]
12 | 0.0794 nM | 17 mL/min/g liver | Cc1cc([C@@H](C)N(C)C(=O)N2CCN3C(=O)C(CCO)(CCO)C[C@H]3[C@@H]2c2ccccc2C)cc(C(F)(F)F)c1 [Compound 85, (1S,8aS)-7,7-bis(2-hydroxyethyl)-N-methyl-N-((R)-1-(3-methyl-5-(trifluoromethyl)phenyl)ethyl)-6-oxo-1-o-tolylhexahydropyrrolo[1,2-a]pyrazine-2(1H)-carboxamide]
13 | 0.129 nM | 2.8 mL/min/g liver | Cc1ccccc1[C@H]1[C@@H]2CC(CCO)(CCO)C(=O)N2CCN1C(=O)N(C)[C@H](CO)c1cc(C(F)(F)F)cc(C(F)(F)F)c1 [Compound 86, (1S,8aS)-N-((S)-1-(3,5-bis(trifluoromethyl)phenyl)-2-hydroxyethyl)-7,7-bis(2-hydroxyethyl)-N-methyl-6-oxo-1-o-tolylhexahydropyrrolo[1,2-a]pyrazine-2(1H)-carboxamide]
14 | 0.0631 nM | 13 mL/min/g liver | Cc1ccccc1[C@H]1[C@@H]2CC(CCO)(CCO)C(=O)N2CCN1C(=O)N(C)[C@H](C)c1cccc(C(F)(F)F)c1 [Compound 88, (1S,8aS)-7,7-bis(2-hydroxyethyl)-N-methyl-6-oxo-1-o-tolyl-N-((R)-1-(3-(trifluoromethyl)phenyl)ethyl)hexa hydropyrrolo[1,2-a]pyrazine-2(1H)-carboxamide]
15 | 0.126 nM | 15 mL/min/g liver | Cc1ccccc1[C@H]1[C@@H]2CC(CCO)(CCO)C(=O)N2CCN1C(=O)N(C)[C@H](C)c1cc(Cl)cc(C(F)(F)F)c1 [Compound 89, (1S,8aS)-N-((R)-1-(3-chloro-5-(trifluoromethyl)phenyl)ethyl)-7,7-bis(2-hydroxyethyl)-N-methyl-6-oxo-1-o-tolylhexahydropyrrolo[1,2-a]pyrazine-2(1H)-carboxamide]
16 | 0.0398 nM | 7.6 mL/min/g liver | Cc1ccccc1[C@H]1[C@@H]2CC(CCO)(CCO)C(=O)N2CCN1C(=O)N(C)[C@@H](C)c1cc(Cl)cc(C(F)(F)F)c1 [Compound 90, (1S,8aS)-N-((S)-1-(3-chloro-5-(trifluoromethyl)phenyl)ethyl)-7,7-bis(2-hydroxyethyl)-N-methyl-6-oxo-1-o-tolylhexahydropyrrolo[1,2-a]pyrazine-2(1H)-carboxamide]
17 | 0.0631 nM | 8.5 mL/min/g liver | COc1cc([C@@H](C)N(C)C(=O)N2CCN3C(=O)C(CCO)(CCO)C[C@H]3[C@@H]2c2ccccc2C)cc(C(F)(F)F)c1 [Compound 91, (1S,8aS)-7,7-bis(2-hydroxyethyl)-N-((R)-1-(3-methoxy-5-(trifluoromethyl)phenyl)ethyl)-N-methyl-6-oxo-1-o-tolylhexahydropyrrolo[1,2-a]pyrazine-2(1H)-carboxamide]
18 | 0.0158 nM | 11 mL/min/g liver | Cc1ccccc1[C@H]1[C@@H]2CC(CCO)(CCO)C(=O)N2CCN1C(=O)N(C)[C@@H](C)c1cc(F)cc(C(F)(F)F)c1 [Compound 92, (1S,8aS)-N-((S)-1-(3-fluoro-5-(trifluoromethyl)phenyl)ethyl)-7,7-bis(2-hydroxyethyl)-N-methyl-6-oxo-1-o-tolylhexahydropyrrolo[1,2-a]pyrazine-2(1H)-carboxamide]
19 | 0.0794 nM | 10 mL/min/g liver | Cc1ccccc1[C@H]1[C@@H]2CC(CCO)(CCO)C(=O)N2CCN1C(=O)N(C)[C@H](C)c1cc(F)cc(C(F)(F)F)c1 [Compound 93, (1S,8aS)-N-((R)-1-(3-fluoro-5-(trifluoromethyl)phenyl)ethyl)-7,7-bis(2-hydroxyethyl)-N-methyl-6-oxo-1-o-tolylhexahydropyrrolo[1,2-a]pyrazine-2(1H)-carboxamide]
